Our source for the inhibition values is ChEMBL document CHEMBL4665643 (Bioorg Med Chem Lett, 2019).

The target of assay [1] is Fibroblast growth factor receptor 1 (Homo sapiens) (UniProt P11362). Put plainly: Inhibition of recombinant human His-tagged FGFR1 (308 to 731 residues) expressed in baculovirus expression system using Tyr 01 as substrate at 0.1 uM incubated for 60 mins by Z'-Lyte assay relative to control.
Assay [2] concerns the target T1, Inhibitor of nuclear factor kappa-B kinase subunit beta (Homo sapiens) (UniProt O14920).
T1 sequence (whole entry): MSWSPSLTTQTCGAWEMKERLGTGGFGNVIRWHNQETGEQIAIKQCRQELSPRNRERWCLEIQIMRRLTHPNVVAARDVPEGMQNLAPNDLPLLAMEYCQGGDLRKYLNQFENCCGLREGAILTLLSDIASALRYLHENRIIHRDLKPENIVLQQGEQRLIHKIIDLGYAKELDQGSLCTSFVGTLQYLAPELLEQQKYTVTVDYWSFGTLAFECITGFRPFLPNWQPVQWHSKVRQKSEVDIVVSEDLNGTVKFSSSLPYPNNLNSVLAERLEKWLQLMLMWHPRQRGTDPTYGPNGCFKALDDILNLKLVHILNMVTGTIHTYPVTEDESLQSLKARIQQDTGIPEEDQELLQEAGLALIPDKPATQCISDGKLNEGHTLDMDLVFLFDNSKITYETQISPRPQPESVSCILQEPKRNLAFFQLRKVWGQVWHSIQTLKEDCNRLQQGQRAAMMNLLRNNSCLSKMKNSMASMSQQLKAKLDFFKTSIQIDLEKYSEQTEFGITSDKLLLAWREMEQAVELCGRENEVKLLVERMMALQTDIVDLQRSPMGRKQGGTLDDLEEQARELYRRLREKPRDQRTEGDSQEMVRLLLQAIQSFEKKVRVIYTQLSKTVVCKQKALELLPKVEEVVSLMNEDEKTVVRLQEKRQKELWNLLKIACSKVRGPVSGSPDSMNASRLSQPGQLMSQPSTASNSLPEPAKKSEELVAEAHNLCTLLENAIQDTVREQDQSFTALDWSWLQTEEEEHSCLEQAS
As to the kind of experiment: Inhibition of recombinant human GST-tagged full length IKKbeta expressed in baculovirus expression system using Ser/Thr 05 as substrate at 0.1 uM incubated for 60 mins by Z'-Lyte assay relative to control.

Assay [3] addresses T2, Interleukin-1 receptor-associated kinase 4 (Homo sapiens) (UniProt Q9NWZ3).
T2 sequence (whole entry): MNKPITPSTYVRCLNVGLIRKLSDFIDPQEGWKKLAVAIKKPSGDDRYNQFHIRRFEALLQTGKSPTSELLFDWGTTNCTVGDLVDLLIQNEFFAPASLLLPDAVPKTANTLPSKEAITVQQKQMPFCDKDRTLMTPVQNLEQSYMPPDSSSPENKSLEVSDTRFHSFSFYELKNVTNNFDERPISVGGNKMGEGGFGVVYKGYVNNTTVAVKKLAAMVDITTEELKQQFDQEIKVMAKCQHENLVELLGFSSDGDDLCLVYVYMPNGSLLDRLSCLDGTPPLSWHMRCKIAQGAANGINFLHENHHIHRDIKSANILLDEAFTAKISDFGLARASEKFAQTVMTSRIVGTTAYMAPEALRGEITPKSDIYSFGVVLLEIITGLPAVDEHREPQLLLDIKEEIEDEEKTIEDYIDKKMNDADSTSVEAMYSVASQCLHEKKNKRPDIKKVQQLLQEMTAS
Put plainly: Inhibition of recombinant human His-tagged full length IRAK4 expressed in baculovirus expression system using Ser/Thr 07 as substrate at 0.1 uM incubated for 60 mins by Z'-Lyte assay relative to control.

Assay [4] addresses T3, Dual specificity protein kinase TTK (Homo sapiens) (UniProt P33981).
T3 sequence (whole entry): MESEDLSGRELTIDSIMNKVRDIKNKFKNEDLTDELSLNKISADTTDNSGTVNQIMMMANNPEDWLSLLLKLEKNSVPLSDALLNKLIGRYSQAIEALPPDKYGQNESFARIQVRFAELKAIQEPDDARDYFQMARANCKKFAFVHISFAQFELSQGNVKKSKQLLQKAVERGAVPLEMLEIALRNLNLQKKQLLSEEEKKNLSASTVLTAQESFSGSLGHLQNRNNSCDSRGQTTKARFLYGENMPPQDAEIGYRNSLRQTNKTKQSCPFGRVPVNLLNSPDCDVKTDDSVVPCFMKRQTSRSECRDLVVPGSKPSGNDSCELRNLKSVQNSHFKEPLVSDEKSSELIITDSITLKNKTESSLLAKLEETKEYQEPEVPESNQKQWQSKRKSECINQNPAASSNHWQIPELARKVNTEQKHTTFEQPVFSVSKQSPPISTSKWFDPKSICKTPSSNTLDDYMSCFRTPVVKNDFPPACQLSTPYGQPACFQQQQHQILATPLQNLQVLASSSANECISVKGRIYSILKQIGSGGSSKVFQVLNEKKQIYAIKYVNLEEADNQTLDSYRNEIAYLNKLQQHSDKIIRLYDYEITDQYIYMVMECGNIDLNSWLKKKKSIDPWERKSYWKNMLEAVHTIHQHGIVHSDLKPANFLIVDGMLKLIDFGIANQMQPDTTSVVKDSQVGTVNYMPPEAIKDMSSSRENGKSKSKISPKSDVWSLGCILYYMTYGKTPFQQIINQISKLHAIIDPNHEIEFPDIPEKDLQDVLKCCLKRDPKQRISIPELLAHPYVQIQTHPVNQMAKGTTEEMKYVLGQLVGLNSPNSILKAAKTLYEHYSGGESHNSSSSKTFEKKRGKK
Put plainly: Inhibition of tracer 236 binding to recombinant human GST-tagged full length TTK expressed in baculovirus expression system at 0.1 uM incubated for 60 mins by Lanthascreen assay relative to control.

The target of assay [5] is Death-associated protein kinase 1 (Homo sapiens) (UniProt P53355). Put plainly: Inhibition of recombinant human N-terminal GST-tagged DAPK1 (1 to 363 residues) expressed in baculovirus expression system using ZIPtide as substrate at 0.1 uM incubated for 60 mins by Adapta assay relative to control.
Death-associated protein kinase 1 (Homo sapiens), sequence (P53355 whole entry, looked up, the tested form may be a part): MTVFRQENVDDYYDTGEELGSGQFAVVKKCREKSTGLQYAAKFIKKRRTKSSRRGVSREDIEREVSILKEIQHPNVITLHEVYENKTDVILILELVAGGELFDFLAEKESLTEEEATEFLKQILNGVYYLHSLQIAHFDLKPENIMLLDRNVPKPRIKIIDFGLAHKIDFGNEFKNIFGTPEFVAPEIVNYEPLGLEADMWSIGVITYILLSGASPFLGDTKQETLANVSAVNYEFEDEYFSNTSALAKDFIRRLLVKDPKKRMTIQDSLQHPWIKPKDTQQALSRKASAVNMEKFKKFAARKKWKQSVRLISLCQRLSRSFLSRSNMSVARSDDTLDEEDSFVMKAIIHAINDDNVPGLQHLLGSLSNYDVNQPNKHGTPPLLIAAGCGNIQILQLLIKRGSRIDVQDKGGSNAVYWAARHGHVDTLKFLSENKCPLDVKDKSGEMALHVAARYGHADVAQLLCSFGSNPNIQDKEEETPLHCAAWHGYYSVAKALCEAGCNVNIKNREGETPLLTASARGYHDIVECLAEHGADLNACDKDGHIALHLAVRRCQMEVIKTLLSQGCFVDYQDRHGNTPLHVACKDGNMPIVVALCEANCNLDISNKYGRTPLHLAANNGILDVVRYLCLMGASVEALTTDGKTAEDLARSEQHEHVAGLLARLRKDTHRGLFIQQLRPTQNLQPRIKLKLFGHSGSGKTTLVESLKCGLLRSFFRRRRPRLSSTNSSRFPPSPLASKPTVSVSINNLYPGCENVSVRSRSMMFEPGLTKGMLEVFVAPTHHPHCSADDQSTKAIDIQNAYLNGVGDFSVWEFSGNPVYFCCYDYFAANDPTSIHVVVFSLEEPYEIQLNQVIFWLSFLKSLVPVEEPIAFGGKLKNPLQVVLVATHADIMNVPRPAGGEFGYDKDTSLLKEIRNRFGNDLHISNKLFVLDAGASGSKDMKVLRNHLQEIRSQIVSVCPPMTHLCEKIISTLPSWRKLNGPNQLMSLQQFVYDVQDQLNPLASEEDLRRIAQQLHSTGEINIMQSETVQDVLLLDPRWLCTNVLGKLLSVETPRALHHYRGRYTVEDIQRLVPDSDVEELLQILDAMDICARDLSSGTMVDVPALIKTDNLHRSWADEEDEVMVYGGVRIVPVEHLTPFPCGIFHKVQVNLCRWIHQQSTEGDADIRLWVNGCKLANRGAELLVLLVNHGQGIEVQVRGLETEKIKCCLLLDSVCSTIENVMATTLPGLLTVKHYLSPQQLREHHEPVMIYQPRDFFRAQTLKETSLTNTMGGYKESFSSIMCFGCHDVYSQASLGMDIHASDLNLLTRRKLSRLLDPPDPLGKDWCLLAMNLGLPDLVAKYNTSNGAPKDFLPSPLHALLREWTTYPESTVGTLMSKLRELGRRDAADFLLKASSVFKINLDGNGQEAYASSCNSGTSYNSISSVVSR
Assay [6] addresses Glycogen synthase kinase-3 beta (Homo sapiens) (UniProt P49841). As to the kind of experiment: Inhibition of recombinant human N-terminal GST-tagged full length GSK3beta expressed in baculovirus expression system using Ser/Thr 09 as substrate at 0.1 uM incubated for 60 mins by Z'-Lyte assay relative to control.
Assay [7] addresses Aurora kinase B (Homo sapiens) (UniProt Q96GD4). As to the kind of experiment: Inhibition of recombinant human His-tagged full length Aurora B expressed in baculovirus expression system using Ser/Thr 01 as substrate at 0.1 uM incubated for 60 mins by Z'-Lyte assay relative to control.

Glycogen synthase kinase-3 beta (Homo sapiens), sequence (P49841 whole entry, looked up): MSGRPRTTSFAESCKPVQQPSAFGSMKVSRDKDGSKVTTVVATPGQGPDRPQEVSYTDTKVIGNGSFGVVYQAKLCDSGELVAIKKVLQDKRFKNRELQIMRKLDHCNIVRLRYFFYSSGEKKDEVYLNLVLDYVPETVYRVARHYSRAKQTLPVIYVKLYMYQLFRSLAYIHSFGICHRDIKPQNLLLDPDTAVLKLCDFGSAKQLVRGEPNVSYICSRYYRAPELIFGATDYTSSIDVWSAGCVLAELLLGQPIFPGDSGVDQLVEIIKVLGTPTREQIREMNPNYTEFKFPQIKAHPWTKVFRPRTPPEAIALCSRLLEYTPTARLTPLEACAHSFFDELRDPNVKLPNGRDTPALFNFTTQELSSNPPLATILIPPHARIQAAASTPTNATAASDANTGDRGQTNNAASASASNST
Fibroblast growth factor receptor 1 (Homo sapiens), sequence (P11362 22-822 limits assumed): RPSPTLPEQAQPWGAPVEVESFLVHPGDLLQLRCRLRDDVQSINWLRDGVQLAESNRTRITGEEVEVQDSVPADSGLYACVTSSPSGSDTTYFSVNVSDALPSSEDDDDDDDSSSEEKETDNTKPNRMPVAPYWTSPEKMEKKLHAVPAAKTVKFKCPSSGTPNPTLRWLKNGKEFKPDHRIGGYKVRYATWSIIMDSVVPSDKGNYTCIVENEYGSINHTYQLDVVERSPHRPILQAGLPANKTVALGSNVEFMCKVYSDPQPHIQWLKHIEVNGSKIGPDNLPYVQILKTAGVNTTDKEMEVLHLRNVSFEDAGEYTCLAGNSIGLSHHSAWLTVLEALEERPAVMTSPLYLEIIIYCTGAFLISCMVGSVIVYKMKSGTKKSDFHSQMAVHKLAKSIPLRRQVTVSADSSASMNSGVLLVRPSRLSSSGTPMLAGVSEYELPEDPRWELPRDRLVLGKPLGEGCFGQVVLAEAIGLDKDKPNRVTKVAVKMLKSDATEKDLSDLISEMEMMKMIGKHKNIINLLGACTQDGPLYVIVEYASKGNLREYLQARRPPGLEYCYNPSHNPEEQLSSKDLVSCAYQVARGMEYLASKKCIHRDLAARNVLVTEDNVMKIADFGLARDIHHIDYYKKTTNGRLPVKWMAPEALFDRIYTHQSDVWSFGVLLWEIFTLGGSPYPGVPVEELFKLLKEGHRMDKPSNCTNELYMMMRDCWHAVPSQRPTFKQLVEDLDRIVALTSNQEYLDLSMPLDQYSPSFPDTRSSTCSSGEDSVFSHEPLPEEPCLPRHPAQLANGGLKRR
Aurora kinase B (Homo sapiens), sequence (Q96GD4 whole entry): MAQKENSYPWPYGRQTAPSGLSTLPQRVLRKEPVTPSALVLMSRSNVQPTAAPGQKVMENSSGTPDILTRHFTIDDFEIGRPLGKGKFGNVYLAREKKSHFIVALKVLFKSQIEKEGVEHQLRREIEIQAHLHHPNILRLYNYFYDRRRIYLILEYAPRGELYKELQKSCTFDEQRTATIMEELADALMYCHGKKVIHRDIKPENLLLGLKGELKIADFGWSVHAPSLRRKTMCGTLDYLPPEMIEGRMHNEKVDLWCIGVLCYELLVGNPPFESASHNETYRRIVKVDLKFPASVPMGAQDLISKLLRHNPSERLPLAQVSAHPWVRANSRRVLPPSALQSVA

Regarding `Cn1cc(NC(=O)c2cnn3cccnc23)c(-c2cc(Cl)ccc2OC(F)F)n1`, the inhibition in assay [1] is 6%; in assay [2], 5%; in assay [3], -4%; in assay [4], 5%; in assay [5], 11%; in assay [6] it was -3%. Also, in assay [7], the inhibition turned out to be 1%.

Regarding `O=C(Nc1c[nH]nc1-c1cc2ccccc2cc1OC(F)F)c1cnn2cccnc12`, the inhibition was 1% in assay [1]; -3% in assay [2]; 4% in assay [3]; -3% in assay [4]; 22% in assay [5]; 7% in assay [6]. Besides, in assay [7], the inhibition stood at 5%.

With `O=C(Nc1c[nH]nc1-c1cc(Cl)ccc1OC(F)F)c1cnn2cccnc12`, the inhibition in assay [1] is -1%; in assay [2] it was 2%; in assay [3], 0%; in assay [4], 4%; in assay [5], 19%; in assay [6], 7%. The inhibition in assay [7] turned out to be 3%.

As usually defined, the inhibition is the change of the read-out against control, counted positive when it falls.
